Here are results for 4 compounds from ChEMBL document CHEMBL3045169, “In vitro evaluation of the antibacterial and antifungal activity of some new pyrazolyl-quinazolin-4(3H)-one derivatives” (2012).

The structures appear in SMILES notation.

What all share (assay type): functional
In test [1] the test system is Aspergillus niger. The experiment in a line: Antifungal activity against Aspergillus niger ATCC 6275 by agar cup-plate method relative to fluconazole. On the set-up: concentration or dose not given beside the values.
Test [2] deals with Aspergillus niger. The test is described as follows: Antifungal activity against Aspergillus niger ATCC 6275 at 10 ug/ml by agar cup-plate method. The following applies: read-out: IZ.
Test [3] has as its system Aspergillus niger. The experiment in a line: Antifungal activity against Aspergillus niger ATCC 6275 at 20 ug/ml by agar cup-plate method. The following applies: read-out: IZ.
Test [4] relates to Candida albicans. The experiment in a line: Antifungal activity against Candida albicans ATCC 10231 by agar cup-plate method relative to fluconazole. On the set-up: concentration or dose not given beside the values.
The test system of test [5] is Candida albicans. The experiment in a line: Antifungal activity against Candida albicans ATCC 10231 at 10 ug/ml by agar cup-plate method. The following applies: read-out: IZ.
Test [6] deals with Candida albicans. The test is described as follows: Antifungal activity against Candida albicans ATCC 10231 at 20 ug/ml by agar cup-plate method. The note with it: read-out: IZ.
The test system of test [7] is Pseudomonas aeruginosa. The test is described as follows: Antibacterial activity against Pseudomonas aeruginosa ATCC 9027 by agar cup-plate method relative to penicillin-G. Also on record: concentration or dose not given beside the values.
Test [8] has as its system Pseudomonas aeruginosa. The test is described as follows: Antibacterial activity against Pseudomonas aeruginosa ATCC 9027 at 50 ug/ml by agar cup-plate method. The note with it: read-out: IZ.
In test [9] the test system is Pseudomonas aeruginosa. The test is described as follows: Antibacterial activity against Pseudomonas aeruginosa ATCC 9027 at 100 ug/ml by agar cup-plate method. The note with it: read-out: IZ.
Test [10] has as its system Escherichia coli. The experiment in a line: Antibacterial activity against Escherichia coli ATCC 25922 by agar cup-plate method relative to penicillin-G. On the set-up: concentration or dose not given beside the values.
Test [11] deals with Escherichia coli. The experiment in a line: Antibacterial activity against Escherichia coli ATCC 25922 at 50 ug/ml by agar cup-plate method. The note with it: read-out: IZ.
Test [12] deals with Escherichia coli. The experiment in a line: Antibacterial activity against Escherichia coli ATCC 25922 at 100 ug/ml by agar cup-plate method. The following applies: read-out: IZ.
Test [13] has as its system Bacillus subtilis. The experiment in a line: Antibacterial activity against Bacillus subtilis ATCC 6633 by agar cup plate method relative to penicillin-G. On the set-up: concentration or dose not given beside the values.
Test [14] concerns Bacillus subtilis. The test is described as follows: Antibacterial activity against Bacillus subtilis ATCC 6633 at 50 ug/ml by agar cup plate method. The following applies: read-out: IZ.
The subject of test [15] is Bacillus subtilis. The experiment in a line: Antibacterial activity against Bacillus subtilis ATCC 6633 at 100 ug/ml by agar cup plate method. The note with it: read-out: IZ.
Test [16] deals with Staphylococcus aureus. The test is described as follows: Antibacterial activity against Staphylococcus aureus ATCC 9144 by agar cup-plate method relative to penicillin-G. Also on record: concentration or dose not given beside the values.
Test [17] relates to Staphylococcus aureus. The experiment in a line: Antibacterial activity against Staphylococcus aureus ATCC 9144 at 50 ug/ml by agar cup-plate method. The note with it: read-out: IZ.
Test [18] relates to Staphylococcus aureus. The test is described as follows: Antibacterial activity against Staphylococcus aureus ATCC 9144 at 100 ug/ml by agar cup-plate method. The following applies: read-out: IZ.

As to `O=c1c2cc(I)ccc2nc(Cc2ccccc2Nc2ccccc2)n1NC1=NNC(c2ccccc2O)C1` (configuration not stated), the Activity in [1] is 38.11%; in [4], 49.95%; in test [7] it was 39.56%; in test [10] it was 34.11%; in test [13] it was 41.49%; in test [16], 38.15%. For the same compound, the zone of inhibition at 10 µg/mL in test [2] worked out at 8 mm; in [5], 9 mm. For the same compound, the zone of inhibition at 20 µg/mL was 10 mm in [3] and 12 mm in test [6]. Besides, the zone of inhibition at 50 µg/mL in test [8] came out at 8 mm; in test [11], 7 mm; in test [14] it was 9 mm; in test [17] it was 8 mm. Also, the zone of inhibition at 100 µg/mL worked out at 10 mm in test [9], 9 mm in test [12], 11 mm in test [15] and 10 mm in test [18].
Regarding `O=c1c2cc(I)ccc2nc(Cc2ccccc2Nc2ccccc2)n1NC1=NNC(c2cccc(O)c2)C1` (configuration not stated), the Activity in test [1] worked out at 45.04%; in [4], 49.07%; in [7], 39.56%; in [10], 34.11%; in [13], 47.05%; in test [16] it was 42.34%. Further, the zone of inhibition at 10 µg/mL in [2] and in test [5] was 0 mm in each case. The zone of inhibition at 20 µg/mL in test [3] and in test [6] was 7 mm in each case. For the same compound, the zone of inhibition at 50 µg/mL in test [8] stood at 8 mm; in [11], 7 mm; in [14], 11 mm; in test [17] it was 10 mm. The zone of inhibition at 100 µg/mL in [9] is 10 mm; in [12], 9 mm; in test [15], 13 mm; in [18], 12 mm.
`O=c1c2cc(I)ccc2nc(Cc2ccccc2Nc2ccccc2)n1NC1=NNC(c2ccc(O)cc2)C1` (configuration not stated): the Activity in test [1] came out at 51.18%; in [4] it was 56.01%; in test [7], 37.4%; in test [10], 32.33%; in test [13], 41.49%; in test [16], 38.15%. In addition, the results for the zone of inhibition at 10 µg/mL in test [2] and in test [5] were 11 mm and 13 mm, respectively. In addition, the values for the zone of inhibition at 20 µg/mL in test [3] and in test [6] were 14 mm and 15 mm, respectively. Moreover, the zone of inhibition at 50 µg/mL is 7 mm in test [8], 6 mm in test [11], 9 mm in test [14] and 8 mm in test [17]. Also, the zone of inhibition at 100 µg/mL was 9 mm in [9], 8 mm in [12], 11 mm in test [15] and 10 mm in test [18].
As for `O=c1c2cc(I)ccc2nc(Cc2ccccc2Nc2ccccc2)n1NC1=NNC(c2ccccc2Cl)C1` (configuration not stated), the Activity in test [1] is 66.9%; in test [4], 76.62%; in [7] it was 48.61%; in test [10], 44.45%; in test [13], 45.27%; in test [16], 44.39%. Further, the zone of inhibition at 10 µg/mL in [2] worked out at 16 mm; in [5], 17 mm. Besides, the zone of inhibition at 20 µg/mL in test [3] came to 19 mm; in test [6] it was 20 mm. The zone of inhibition at 50 µg/mL in test [8], in [11], in test [14] and in [17] was 0 mm each time. Moreover, the zone of inhibition at 100 µg/mL amounted to 7 mm in [9], 7 mm in [12], 7 mm in test [15] and 6 mm in [18].
